Laboratory results taken from US10858356B2, “Pyrazolopyridine derivative having GLP-1 receptor agonist effect” (Chugai Seiyaku Kabushiki Kaisha, priority 2016, dated 2020).
Like-named read-outs stand apart in the source and are kept apart here.

Legend:
male cynomolgus monkeys [1] = assay: Insulin secretion promoting and blood glucose lowering effects after intravenous glucose; assay type: in vivo, cynomolgus monkey
Procedure: Next, a 50% glucose solution (glucose administration weight to the monkey: 0.5 g/kg) was intravenously administered and a blood sample was collected every 5 min or 10 min to measure the plasma insulin and glucose concentrations. The area under the curve was calculated from the time course of each parameter after the drug administration to evaluate the insulin secretion promoting effect and the blood glucose lowering effect.

male cynomolgus monkeys [2] = assay type: in vivo, cynomolgus monkey
[3] = Pharmacokinetics after oral administration; assay type: in vivo, cynomolgus monkey; settings: for Cmax / Tmax / AUC(0-t): male, cynomolgus monkey, plasma, calcium salt hydrate crystal (Sample 162a) suspension, n=2; for AUC(0-t): read-out: AUC0-24 h
Procedure: The plasma concentrations of the drug were determined by liquid chromatography tandem-mass spectrometry. The lower limit of quantification was 0.3 ng/mL.

human GLP1R = human GLP1R (Homo sapiens (Human), UniProt P43220); assay: In vitro cAMP signal activation in human GLP1R stably-expressing cell line (hGLP1R-HEK293); assay type: cell-based; settings: cAMP concentration in hGLP1R-HEK293; 100% = 1 nM human GLP-1 (7-37)
[4] = continuous i.v. 40 min, steady-state plasma concentration 0.94 to 4.8 nmol/L, then i.v. glucose 0.5 g/kg, vs vehicle

Chain of human GLP1R (P43220 24-463): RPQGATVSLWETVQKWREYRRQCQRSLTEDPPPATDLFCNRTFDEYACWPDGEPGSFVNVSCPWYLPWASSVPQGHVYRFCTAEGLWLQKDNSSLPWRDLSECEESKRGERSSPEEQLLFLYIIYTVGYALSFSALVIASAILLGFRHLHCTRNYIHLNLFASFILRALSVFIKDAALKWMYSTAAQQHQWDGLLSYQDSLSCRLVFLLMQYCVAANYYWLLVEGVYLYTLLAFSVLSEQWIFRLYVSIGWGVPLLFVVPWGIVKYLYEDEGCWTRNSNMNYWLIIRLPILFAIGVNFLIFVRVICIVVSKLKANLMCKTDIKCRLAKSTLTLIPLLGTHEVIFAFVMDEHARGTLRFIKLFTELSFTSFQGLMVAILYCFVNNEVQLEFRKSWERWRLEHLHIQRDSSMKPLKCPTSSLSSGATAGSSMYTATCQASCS

With Cc1cc(-n2nc3c(c2-n2ccn(-c4ccc5c(cnn5C)c4F)c2=O)[C@H](C)N(C(=O)c2cc4cc([C@H]5CCOC(C)(C)C5)ccc4n2[C@@]2(c4noc(=O)[nH]4)C[C@@H]2C)CC3)cc(C)c1F [Example Compound 67, 3-[(1S,2S)-1-[5-[(4S)-2,2-dimethyloxan-4-yl]-2-[(4S)-2-(4-fluoro-3,5-dimethylphenyl)-3-[3-(4-fluoro-1-methylindazol-5-yl)-2-oxoimidazol-1-yl]-4-methyl-6,7-dihydro-4H-pyrazolo[4,3-c]pyridine-5-carbonyl]indol-1-yl]-2-methylcyclopropyl]-4H-1,2,4-oxadiazol-5-one] the “area under the curve of insulin” value (male cynomolgus monkeys [1]; [4]) was “increase in the area under the curve of insulin”, the “area under the curve of plasma glucose” value (male cynomolgus monkeys [1]; [4]) was “decrease in the area under the curve of plasma glucose” and the “plasma concentration at which insulin secretion promoting and blood glucose lowering effects are equivalent to exenatide” value (male cynomolgus monkeys [1]; steady-state plasma concentration, i.v. infusion) was ≥ 1.6 nmol/L. For the same compound, the “degree of suppression of food intake compared with control drug” value (male cynomolgus monkeys [2]; oral 0.05 or 0.1 mg/kg vs exenatide s.c. 0.3 or 0.6 μg/kg) was “almost equivalent to the control drug exenatide”, the food intake (male cynomolgus monkeys [2]; oral, 5 consecutive days, 0.05 or 0.1 mg/kg, food intake for 90 min from 3 h after administration) was “suppressed the food intake in a dosage dependent manner” and the “time after oral administration at which plasma concentrations reached Cmax” value ([3]; all dosages (0.05, 0.15, 0.45 and 1.35 mg/kg), oral) was 2 h. The Cmax ([3]; 0.05 mg/kg oral) was 4.78 ng/mL, the Tmax ([3]; 0.05 mg/kg oral) was 2 h and the AUC(0-t) ([3]; 0.05 mg/kg oral) was 23.7 ng·h/mL. For the same compound, the Cmax ([3]; 0.15 mg/kg oral) was 20.7 ng/mL, the Tmax ([3]; 0.15 mg/kg oral) was 2 h and the AUC(0-t) ([3]; 0.15 mg/kg oral) was 135 ng·h/mL. It also gave a Cmax ([3]; 0.45 mg/kg oral) of 32 ng/mL, a Tmax ([3]; 0.45 mg/kg oral) of 2 h and an AUC(0-t) ([3]; 0.45 mg/kg oral) of 208 ng·h/mL. The Cmax ([3]; 1.35 mg/kg oral) was 148 ng/mL, the Tmax ([3]; 1.35 mg/kg oral) was 2 h and the AUC(0-t) ([3]; 1.35 mg/kg oral) was 1040 ng·h/mL. For the same compound, the “absorption in the intestinal tract and elimination” value ([3]; oral 0.05 to 1.35 mg/kg) was “dose-proportionally absorbed in the intestinal tract and eliminated”.

With COCCn1ncc2c(F)c(-n3ccn(-c4c5c(nn4-c4ccc(F)c(C)c4)CCN(C(=O)c4cc6cc([C@H]7CCOC(C)(C)C7)ccc6n4[C@@]4(c6noc(=O)[nH]6)C[C@@H]4C)[C@H]5C)c3=O)ccc21 [Example 48, 3-[(1S,2S)-1-[5-[(4S)-2,2-dimethyloxan-4-yl]-2-[(4S)-3-[3-[4-fluoro-1-(2-methoxyethyl)indazol-5-yl]-2-oxoimidazol-1-yl]-2-(4-fluoro-3-methylphenyl)-4-methyl-6,7-dihydro-4H-pyrazolo[4,3-c]pyridine-5-carbonyl]indol-1-yl]-2-methylcyclopropyl]-4H-1,2,4-oxadiazol-5-one] the EC50 (human GLP1R) was 3 nM.

In the case of COCCn1ncc2cc(-n3ccn(-c4c5c(nn4-c4cc(C)c(F)c(C)c4)CCN(C(=O)c4cc6cc(N7CCOC(C)(C)C7)ccc6n4[C@@]4(c6noc(=O)[nH]6)C[C@@H]4C)C5)c3=O)ccc21 [Example 7, 3-[(1S,2S)-1-[5-(2,2-dimethylmorpholin-4-yl)-2-[2-(4-fluoro-3,5-dimethylphenyl)-3-[3-[1-(2-methoxyethyl)indazol-5-yl]-2-oxoimidazol-1-yl]-6,7-dihydro-4H-pyrazolo[4,3-c]pyridine-5-carbonyl]indol-1-yl]-2-methylcyclopropyl]-4H-1,2,4-oxadiazol-5-one], the EC50 (human GLP1R) is reported as 3.2 nM.

CCc1nccc(-c2ccc3c(c2)cc(C(=O)N2CCc4nn(-c5cc(C)c(F)c(C)c5)c(-n5ccn(-c6ccc7c(C)nsc7c6)c5=O)c4C2)n3[C@@]2(c3noc(=O)[nH]3)C[C@@H]2C)c1C [Example 3] gave an EC50 (human GLP1R) of 6.1 nM.
